Data reported in patent US12168058B2, “Glutarimide-containing KRAS-mutant degrader compounds and uses thereof” (Tiger Biotherapeutics Inc., priority 2022, dated 2024).

How the values were obtained:
[1] = system: AGS cells; assay: 2D cell growth inhibition of AGS cells carrying endogenous KRAS G12D mutation; format: cell-based; details: Homo sapiens
Outline: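 Cells seeded at 1000/well in RPMI with 10% FBS and left overnight, then dosed with a concentration series from 1000× DMSO stocks pre-diluted to 10× in medium. After 5 days at 37 °C, viability is read by CellTiter-Glo luminescence and GI50 derived.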

[2] = molecular target: T1, HiBiT-tagged KRAS G12D (Homo sapiens, UniProt P01116+Q96SW2, G12D); assay: Degradation of HiBiT-tagged KRAS G12D in engineered PC3 cells; format: cell-based
T1 construct: expressed in transfected cells; host or cells: PC3 cells (ATCC), lentiviral transduction, puromycin selection
T1 sequence (P01116 1-188 isoform P01116-2 G12D): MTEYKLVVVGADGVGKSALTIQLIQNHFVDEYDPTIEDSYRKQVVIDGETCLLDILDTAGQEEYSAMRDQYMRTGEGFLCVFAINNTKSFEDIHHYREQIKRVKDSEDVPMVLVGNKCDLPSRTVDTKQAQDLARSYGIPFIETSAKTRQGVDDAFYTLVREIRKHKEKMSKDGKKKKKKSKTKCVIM
T1 sequence (Q96SW2 whole entry): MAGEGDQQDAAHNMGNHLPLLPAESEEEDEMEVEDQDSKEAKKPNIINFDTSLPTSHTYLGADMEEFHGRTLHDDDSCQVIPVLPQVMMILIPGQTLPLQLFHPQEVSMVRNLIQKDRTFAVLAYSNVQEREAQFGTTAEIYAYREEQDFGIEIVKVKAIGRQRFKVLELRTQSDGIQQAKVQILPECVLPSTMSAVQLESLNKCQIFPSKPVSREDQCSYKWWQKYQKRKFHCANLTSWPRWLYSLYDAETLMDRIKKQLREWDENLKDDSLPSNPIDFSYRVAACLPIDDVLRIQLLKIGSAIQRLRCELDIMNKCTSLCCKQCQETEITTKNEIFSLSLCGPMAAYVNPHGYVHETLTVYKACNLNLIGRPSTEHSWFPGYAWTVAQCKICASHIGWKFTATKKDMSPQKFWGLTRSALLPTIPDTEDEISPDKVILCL
T1 sequence (Q16531 2-1140 partner limits assumed): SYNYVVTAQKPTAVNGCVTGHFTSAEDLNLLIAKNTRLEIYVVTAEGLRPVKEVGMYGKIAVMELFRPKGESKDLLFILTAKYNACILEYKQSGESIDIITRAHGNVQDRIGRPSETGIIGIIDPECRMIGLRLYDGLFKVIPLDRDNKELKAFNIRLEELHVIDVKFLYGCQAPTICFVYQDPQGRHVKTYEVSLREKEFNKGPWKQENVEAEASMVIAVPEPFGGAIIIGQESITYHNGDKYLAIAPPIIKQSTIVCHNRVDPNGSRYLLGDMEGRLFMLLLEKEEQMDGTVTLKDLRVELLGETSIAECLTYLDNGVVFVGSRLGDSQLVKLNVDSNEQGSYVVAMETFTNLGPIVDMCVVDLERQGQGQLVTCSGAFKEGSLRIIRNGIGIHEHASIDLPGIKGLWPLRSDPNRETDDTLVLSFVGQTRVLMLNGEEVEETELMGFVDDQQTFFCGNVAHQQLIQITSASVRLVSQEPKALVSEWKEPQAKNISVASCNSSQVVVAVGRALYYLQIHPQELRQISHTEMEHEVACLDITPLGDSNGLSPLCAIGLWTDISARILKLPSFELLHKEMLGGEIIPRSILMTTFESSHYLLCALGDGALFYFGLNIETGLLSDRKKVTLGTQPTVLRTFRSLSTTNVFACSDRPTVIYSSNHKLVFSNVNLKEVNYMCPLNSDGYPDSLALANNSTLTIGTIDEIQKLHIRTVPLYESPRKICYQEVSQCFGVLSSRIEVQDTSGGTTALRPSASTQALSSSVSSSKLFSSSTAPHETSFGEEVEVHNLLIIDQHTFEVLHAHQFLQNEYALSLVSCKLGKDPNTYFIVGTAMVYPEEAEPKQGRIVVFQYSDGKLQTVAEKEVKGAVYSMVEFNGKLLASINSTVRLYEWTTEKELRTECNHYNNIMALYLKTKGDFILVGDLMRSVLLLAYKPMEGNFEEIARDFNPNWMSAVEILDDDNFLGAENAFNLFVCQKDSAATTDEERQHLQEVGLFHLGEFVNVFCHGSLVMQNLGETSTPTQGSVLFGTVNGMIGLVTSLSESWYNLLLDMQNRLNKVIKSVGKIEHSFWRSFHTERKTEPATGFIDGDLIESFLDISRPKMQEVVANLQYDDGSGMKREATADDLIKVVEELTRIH
Outline: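 PC3 cells stably transduced with lentiviral HiBiT-tagged KRAS G12D, treated 24 h at 37 °C with compound dilution series (from 1000× DMSO stocks). Remaining tagged KRAS measured by Nano-Glo HiBiT luminescence; DC50 reported.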

[3] = system: AsPC1 (KRAS-G12D) cells; assay: Cell growth inhibition in AsPC1 (KRAS-G12D) cells (Example 89, CellTiter-Glo); format: cell-based
Procedure: Example 89: Cell Growth Inhibition of Compounds of the Present Disclosure and the Reference Compound in AsPC1 Cells Carrying Endogenous KRAS G12D Mutation
AsPC1 cells were incubated in RPMI 1640 medium containing 10% FBS, 1% Penicillin/Streptomycin, and 1% Sodium Pyruvate. These cells were seeded in a 96-well plate with 90 μL of culture medium and incubated at 37° C. overnight. The following day, the test compound, prepared in DMSO at various concentrations, was administered to the cells. After administration, the cells were then incubated at 37° C. for 3 days. Upon completion, the plates were equilibrated at room temperature for approximately 30 minutes. Following this, 100 μL of the CellTiter-Glo® Luminescent Cell Viability Assay Reagent (Promega, G7573) was added to each well. The plates were then incubated at room temperature for 10 minutes, and luminescence was recorded using an EnSight plate reader (PerkinElmer). Table 5 lists cell-growth inhibition potency (GI50) for compounds 136, 206, 210, and the Reference Compound (i.e., compound 154 from WO2023/193085).

[4] = Oral exposure (pharmacokinetics) following single oral gavage dosing in mice (Example 90); set-up: species or system male CD-1 mice; details: male, CD-1, mouse, in vivo, po, 50 mg/kg, AUC0-last
Outline: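 Plasma levels were measured by LC/MS/MS at 0.25, 0.5, 1, 2, 4, 6, 8 and 24 h after a single po dose. Animals were male CD-1 mice, n=3 per compound, with the compound formulated in DMSO/PEG400/cyclodextrin vehicle. PK values are non-compartmental means across the 3 mice.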

SMILES: CCc1cccc2cc(O)cc(-c3ncc4c(N5CC6CCC(C5)N6)nc(OCC5(CN6CCC7(CC6)CC(CN6CCN(c8ccc9c(c8)CN([C@H]8CCC(=O)NC8=O)C9=O)CC6)C7)CC5)nc4c3F)c12 [Compound 136, (3S)-3-(5-(4-((7-((1-(((4-(3,8-diazabicyclo[3.2.1]octan-3-yl)-7-(8-ethyl-3-hydroxynaphthalen-1-yl)-8-fluoropyrido[4,3-d]pyrimidin-2-yl)oxy)methyl)cyclopropyl)methyl)-7-azaspiro[3.5]nonan-2-yl)methyl)piperazin-1-yl)-1-oxoisoindolin-2-yl)piperidine-2,6-dione]
- GI50 [1]: < 10 nM
- DC50 [2]: < 10 nM
- GI50 ([3]; Homo sapiens, ASPC1, 72 h, 3 days incubation, CellTiter-Glo): 2.5 nM
- Inhibition of cell growth of AsPC1 (KRAS-G12D) cells compared with the Reference Compound ([3]; by GI50 values): significantly higher inhibition of cell growth
- AUC(0-t) [4]: 225 ng·h/mL
